Results taken from US12599582B2, “Pyrrole compounds” (ALIGOS THERAPEUTICS, INC., priority 2019, dated 2026).

Test system: HBV
Experiment: HBV-DNA Antiviral Assay Using HepG2.2.15 Cells (extracellular HBV DNA by qPCR)
Assay type: cell-based, hepatitis B virus (HBV)
Details: Hepatitis B virus; HBV DNA inhibition, HepG2.2.15 cells, extracellular HBV DNA by qPCR; read-out: EC50
Outline: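 HepG2.2.15 cells were treated on day 1 with 8 concentrations (4-fold dilutions, duplicate; 0.5% DMSO), with compound-containing medium refreshed on day 4, at 37 °C. On day 7, supernatant HBV DNA was measured by qPCR against a plasmid standard curve, with inhibition normalised between DMSO and ETV controls. EC50/EC90 and CC50 (CellTiter-Glo ATP) came from variable-slope fits.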

| SMILES | EC50 [nM] |
| --- | --- |
| C#C[C@@](CO)(NC(=O)C(=O)c1c(C)c(C(=O)Nc2ccc(F)c(C(F)(F)F)c2)n(C)c1C)C(F)(F)F [Compound 75b, N-[4-fluoro-3-(trifluoromethyl)phenyl]-1,3,5-trimethyl-4-[2-oxo-2-[[(1S)-1-(hydroxymethyl)-1-(trifluoromethyl)prop-2-ynyl]amino]acetyl]pyrrole-2-carboxamide] | 10 to 100 |
| Cc1c(C(=O)C(=O)NC2(C#CCO)COC2)c(C)n(C)c1C(=O)Nc1ccc(F)c(C#N)c1 [Compound 76, N-(3-cyano-4-fluoro-phenyl)-4-[2-[[3-(3-hydroxyprop-1-ynyl)oxetan-3-yl]amino]-2-oxo-acetyl]-1,3,5-trimethyl-pyrrole-2-carboxamide] | 10 to 100 |
| C#C[C@@](C)(NC(=O)C(=O)c1c(C)c(C(=O)Nc2ccc(F)c(C#N)c2)n(C)c1C)C(F)(F)F [Compound 79a, N-(3-cyano-4-fluoro-phenyl)-1,3,5-trimethyl-4-[2-oxo-2-[[(1R)-1-methyl-1-(trifluoromethyl)prop-2-ynyl]amino]acetyl]pyrrole-2-carboxamide] | 1 to 10 |
| C#C[C@](C)(NC(=O)C(=O)c1c(C)c(C(=O)Nc2ccc(F)c(C#N)c2)n(C)c1C)C(F)(F)F [Compound 79b, N-(3-cyano-4-fluoro-phenyl)-1,3,5-trimethyl-4-[2-oxo-2-[[(1S)-1-methyl-1-(trifluoromethyl)prop-2-ynyl]amino]acetyl]pyrrole-2-carboxamide] | 1 to 10 |
| C=C[C@](CO)(NC(=O)C(=O)c1c(C)c(C(=O)Nc2ccc(F)c(C(F)(F)F)c2)n(C)c1C)C(F)(F)F [Compound 80a, N-[4-fluoro-3-(trifluoromethyl)phenyl]-1,3,5-trimethyl-4-[2-oxo-2-[[(1R)-1-(hydroxymethyl)-1-(trifluoromethyl)allyl]amino]acetyl]pyrrole-2-carboxamide] | 1 to 10 |
| C=C[C@@](CO)(NC(=O)C(=O)c1c(C)c(C(=O)Nc2ccc(F)c(C(F)(F)F)c2)n(C)c1C)C(F)(F)F [Compound 80b, N-[4-fluoro-3-(trifluoromethyl)phenyl]-1,3,5-trimethyl-4-[2-oxo-2-[[(1S)-1-(hydroxymethyl)-1-(trifluoromethyl)allyl]amino]acetyl]pyrrole-2-carboxamide] | 1 to 10 |
| C#CC1(NC(=O)C(=O)c2c(C)c(C(=O)Nc3ccc(F)c(C(F)F)c3)n(C)c2Cl)CC(F)(F)C1 [Compound 81, 5-chloro-N-[3-(difluoromethyl)-4-fluoro-phenyl]-4-[2-[(1-ethynyl-3,3-difluoro-cyclobutyl)amino]-2-oxo-acetyl]-1,3-dimethyl-pyrrole-2-carboxamide] | 1 to 10 |
| C#CC1(NC(=O)C(=O)c2c(C)c(C(=O)Nc3ccc(F)c(C(F)F)c3)n(C)c2C)CC(F)(F)C1 [Compound 82, N-[3-(difluoromethyl)-4-fluoro-phenyl]-4-[2-[(1-ethynyl-3,3-difluoro-cyclobutyl)amino]-2-oxo-acetyl]-1,3,5-trimethyl-pyrrole-2-carboxamide] | 1 to 10 |
| C#CC1(NC(=O)C(=O)c2c(C)c(C(=O)Nc3ccnc(Br)c3F)n(C)c2C)COC1 [Compound 83, N-(2-bromo-3-fluoro-4-pyridyl)-4-[2-[(3-ethynyloxetan-3-yl)amino]-2-oxo-acetyl]-1,3,5-trimethyl-pyrrole-2-carboxamide] | 1 to 10 |
| C#CC1(NC(=O)C(=O)c2c(C)c(C(=O)Nc3ccnc(Br)c3F)n(C)c2C)CC(F)(F)C1 [Compound 84, N-(2-bromo-3-fluoro-4-pyridyl)-4-[2-[(1-ethynyl-3,3-difluoro-cyclobutyl)amino]-2-oxo-acetyl]-1,3,5-trimethyl-pyrrole-2-carboxamide] | 1 to 10 |
| Cc1c(C(=O)C(=O)NC(C)(C)c2nccs2)c(C)n(C)c1C(=O)Nc1ccc(F)c(C#N)c1 [Compound 85, N-(3-cyano-4-fluoro-phenyl)-1,3,5-trimethyl-4-[2-[(1-methyl-1-thiazol-2-yl-ethyl)amino]-2-oxo-acetyl]pyrrole-2-carboxamide] | 1 to 10 |
| C#CC1(NC(=O)C(=O)c2c(C)c(C(=O)Nc3ccc(F)c(F)c3)n(C)c2C)COC1 [Compound 86, N-(3,4-difluorophenyl)-4-[2-[(3-ethynyloxetan-3-yl)amino]-2-oxo-acetyl]-1,3,5-trimethyl-pyrrole-2-carboxamide] | 1 to 10 |
| C#CC1(NC(=O)C(=O)c2c(C)c(C(=O)Nc3ccc(F)c(F)c3)n(C)c2C)CCCCC1 [Compound 87, N-(3,4-difluorophenyl)-4-[2-[(1-ethynylcyclohexyl)amino]-2-oxo-acetyl]-1,3,5-trimethyl-pyrrole-2-carboxamide] | 1 to 10 |
| C#CC(C)(CC)NC(=O)C(=O)c1c(C)c(C(=O)Nc2ccc(F)c(F)c2)n(C)c1C (centres unmarked) [Compound 88, N-(3,4-difluorophenyl)-4-[2-[(1-ethyl-1-methyl-prop-2-ynyl)amino]-2-oxo-acetyl]-1,3,5-trimethyl-pyrrole-2-carboxamide] | 1 to 10 |
| C#CC(CC)(CC)NC(=O)C(=O)c1c(C)c(C(=O)Nc2ccc(F)c(F)c2)n(C)c1C [Compound 89, 4-[2-(1,1-diethylprop-2-ynylamino)-2-oxo-acetyl]-N-(3,4-difluorophenyl)-1,3,5-trimethyl-pyrrole-2-carboxamide] | 1 to 10 |
| C#CC(C)(C)NC(=O)C(=O)c1c(C)c(C(=O)Nc2ccc(F)c(F)c2)n(C)c1C [Compound 90, N-(3,4-difluorophenyl)-4-[2-(1,1-dimethylprop-2-ynylamino)-2-oxo-acetyl]-1,3,5-trimethyl-pyrrole-2-carboxamide] | 1 to 10 |
| Cc1c(C(=O)C(=O)NC(C)(C)c2ccccn2)c(C)n(C)c1C(=O)Nc1ccc(F)c(C#N)c1 [Compound 91, N-(3-cyano-4-fluoro-phenyl)-1,3,5-trimethyl-4-[2-[[1-methyl-1-(2-pyridyl)ethyl]amino]-2-oxo-acetyl]pyrrole-2-carboxamide] | 1 to 10 |
| Cc1c(C(=O)C(=O)NC(C)(C)c2cccnc2)c(C)n(C)c1C(=O)Nc1ccc(F)c(C#N)c1 [Compound 92, N-(3-cyano-4-fluoro-phenyl)-1,3,5-trimethyl-4-[2-[[1-methyl-1-(3-pyridyl)ethyl]amino]-2-oxo-acetyl]pyrrole-2-carboxamide] | 1 to 10 |
| Cc1c(C(=O)C(=O)NC(C)(C)c2ccncc2)c(C)n(C)c1C(=O)Nc1ccc(F)c(C#N)c1 [Compound 93, N-(3-cyano-4-fluoro-phenyl)-1,3,5-trimethyl-4-[2-[[1-methyl-1-(4-pyridyl)ethyl]amino]-2-oxo-acetyl]pyrrole-2-carboxamide] | 1 to 10 |
| Cc1c(C(=O)C(=O)NC2(C#C[C@@H](C)O)COC2)c(C)n(C)c1C(=O)Nc1ccc(F)c(C#N)c1 [Compound 94a, N-(3-cyano-4-fluoro-phenyl)-1,3,5-trimethyl-4-[2-oxo-2-[[3-[(3R)-3-hydroxybut-1-ynyl]oxetan-3-yl]amino]acetyl]pyrrole-2-carboxamide] | 10 to 100 |
| Cc1c(C(=O)C(=O)NC2(C#C[C@H](C)O)COC2)c(C)n(C)c1C(=O)Nc1ccc(F)c(C#N)c1 [Compound 94b, N-(3-cyano-4-fluoro-phenyl)-1,3,5-trimethyl-4-[2-oxo-2-[[3-[(3S)-3-hydroxybut-1-ynyl]oxetan-3-yl]amino]acetyl]pyrrole-2-carboxamide] | 1 to 10 |
| C=C[C@@](C)(NC(=O)C(=O)c1c(C)c(C(=O)Nc2ccc(F)c(C#N)c2)n(C)c1C)C(F)(F)F [Compound 95a, N-(3-cyano-4-fluoro-phenyl)-1,3,5-trimethyl-4-[2-oxo-2-[[(1R)-1-methyl-1-(trifluoromethyl)allyl]amino]acetyl]pyrrole-2-carboxamide] | 1 to 10 |
| C=C[C@](C)(NC(=O)C(=O)c1c(C)c(C(=O)Nc2ccc(F)c(C#N)c2)n(C)c1C)C(F)(F)F [Compound 95b, N-(3-cyano-4-fluoro-phenyl)-1,3,5-trimethyl-4-[2-oxo-2-[[(1S)-1-methyl-1-(trifluoromethyl)allyl]amino]acetyl]pyrrole-2-carboxamide] | 1 to 10 |
| Cc1c(C(=O)C(=O)NC(C)(C)c2cn[nH]c2)c(C)n(C)c1C(=O)Nc1ccc(F)c(C#N)c1 [Compound 96, N-(3-cyano-4-fluoro-phenyl)-1,3,5-trimethyl-4-[2-[[1-methyl-1-(1H-pyrazol-4-yl)ethyl]amino]-2-oxo-acetyl]pyrrole-2-carboxamide] | 1 to 10 |
| Cc1c(C(=O)C(=O)NC(C)(C)c2cn[nH]c2)c(C)n(C)c1C(=O)Nc1ccc(F)c(C(F)(F)F)c1 [Compound 97, N-[4-fluoro-3-(trifluoromethyl)phenyl]-1,3,5-trimethyl-4-[2-[[1-methyl-1-(1H-pyrazol-4-yl)ethyl]amino]-2-oxo-acetyl]pyrrole-2-carboxamide] | < 1 |
| Cc1c(C(=O)C(=O)NC(C)(C)c2cnn(C)c2)c(C)n(C)c1C(=O)Nc1ccc(F)c(C(F)(F)F)c1 [Compound 98, N-[4-fluoro-3-(trifluoromethyl)phenyl]-1,3,5-trimethyl-4-[2-[[1-methyl-1-(1-methylpyrazol-4-yl)ethyl]amino]-2-oxo-acetyl]pyrrole-2-carboxamide] | < 1 |
| Cc1c(C(=O)C(=O)NC(C)(C)c2ccccn2)c(C)n(C)c1C(=O)Nc1ccc(F)c(C(F)(F)F)c1 [Compound 99, N-[4-fluoro-3-(trifluoromethyl)phenyl]-1,3,5-trimethyl-4-[2-[[1-methyl-1-(2-pyridyl)ethyl]amino]-2-oxo-acetyl]pyrrole-2-carboxamide] | 1 to 10 |
| Cc1c(C(=O)C(=O)NC(C)(C)c2cccnc2)c(C)n(C)c1C(=O)Nc1ccc(F)c(C(F)(F)F)c1 [Compound 100, N-[4-fluoro-3-(trifluoromethyl)phenyl]-1,3,5-trimethyl-4-[2-[[1-methyl-1-(3-pyridyl)ethyl]amino]-2-oxo-acetyl]pyrrole-2-carboxamide] | < 1 |
| Cc1c(C(=O)C(=O)NC(C)(C)c2ccncc2)c(C)n(C)c1C(=O)Nc1ccc(F)c(C(F)(F)F)c1 [Compound 101, N-[4-fluoro-3-(trifluoromethyl)phenyl]-1,3,5-trimethyl-4-[2-[[1-methyl-1-(4-pyridyl)ethyl]amino]-2-oxo-acetyl]pyrrole-2-carboxamide] | 1 to 10 |
